Patent US8563683B2, “Synthetic lung surfactant and use thereof” (University of Rochester, priority 2006, dated 2013)

Legend:
[1] = Surface activity on pulsating bubble surfactometer (minimum surface tension); assay type: physicochemical; conditions: 37° C., 20 cycles/min, 50% area compression, lipid […] except SLM (1.0 mg/ml)
Experimental: Surfactant compositions were formulated using various molar or wt ratios of lipid analogs or naturally occurring lipids, with the addition of native lung surface proteins or synthetic peptides, and optionally a saturated free fatty acid in the indicated wt percentage based on the total weight of the intermediate lipid formulation. Surfactant compositions were dispersed in 0.15M NaCl+2 mM CaCl2 and placed in a sample chamber mounted on the pulsator unit of a bubble surfactometer. All surfactants were studied at a lipid concentration of 2.5 mg/ml, and in addition a mixture of synthetic ester-linked phospholipids (SLM) plus Super Mini-B was studied at a lipid concentration of 1 mg/ml.
A tiny air bubble was formed and pulsated between maximum and minimum radii of 0.55 and 0.4 mm, respectively, while the pressure drop across the air-water interface of the bubble was measured with a precision transducer. Surface tension was calculated from the measured pressure drop at minimum radius (0.4 mm) from the Laplace equation (Enhorning, “Pulsating Bubble Technique for Evaluation of Pulmonary Surfactant,” J Appl Physiol 43:198-203 (1977); Hall et al., “Approximations in the Measurement of Surface Tension with the Oscillating Bubble Surfactometer,” J Appl Physiol 75:468-477 (1993), each of which is hereby incorporated by reference in its entirety).
The high surface activity of synthetic lung surfactants containing DEPN-8 or 9:1 DEPN-8:PG-A or 9:1 DEPN-8:PG-B plus 1.5% by weight of Mini-B, FK20, or F4K is shown in Table 1. Activity is also shown for mixtures containing two glycerophospholipids found in endogenous lung surfactant, 8:2 (molar ratio) dipalmitoyl phosphatidylcholine (DPPC) and palmitoyl-oleoyl phosphatidylglycerol (POPG), with or without added synthetic peptides. Also studied is a synthetic lipid mixture containing 16:10:6:1:2 (by weight) DPPC, palmitoyl-oleoyl-phosphatidylcholine (POPC), POPG, palmitoyl-oleoyl-phosphatidylethanolamine (POPE), and cholesterol combined with Super Mini B (SEQ ID NO: 13). The surface activity of DEPN-8+1.5% bovine SP-B/C (mixture of bovine surfactant proteins B/C purified on a column from extracted calf lung surfactant) is additionally shown as a positive control. As described in the preceding paragraph, the surface activity measurements in Table 1 were obtained with a pulsating bubble surfactometer in vitro. Measurements of surface activity on this instrument reflect the combined effects of adsorption and dynamic film compression at a cycling rate (20 cycles/min), temperature (37° C.), and area compression (50% compression from maximum to minimum area) relevant for the mammalian lungs in vivo (Notter, Lung Surfactants: Basic Science and Clinical Applications, Marcel Dekker, Inc, New York (2000); Enhorning, “Pulsating Bubble Technique for Evaluation of Pulmonary Surfactant,” J Appl Physiol 43:198-203 (1977); Notter et al., “Pulmonary Surfactant: Physical Chemistry, Physiology and Replacement,” Rev Chem Eng 13:1-118 (1997), each of which is hereby incorporated by reference in its entirety). Prior publications have shown that assessments of surface activity on the bubble apparatus correlate well with the physiological activity of exogenous surfactants in animal lungs (see Notter, Lung Surfactants: Basic Science and Clinical Applications, Marcel Dekker, Inc, New York (2000); Notter et al., “Pulmonary Surfactant: Physical Chemistry, Physiology and Replacement,” Rev Chem Eng 13:1-118 (1997); Holm et al., “Effects of Hemoglobin and Cell Membrane Lipids on Pulmonary Surfactant Activity,” J Appl Physiol 63:1434-1442 (1987), each of which is hereby incorporated by reference in its entirety). […] The activity of these surfactant formulations of the present invention also approached or exceeded the positive control DEPN-8+1.5% bovine SP-B/C. […]

[2] = target: DEPN-8; assay: Plasmon resonance (Biacore 3000) binding of lipid liposomes to peptide film; conditions: DEPN-8 liposomes over peptide film on CM5 chip, 37° C.; read-out: dissociation constant KD (koff/kon)
Experimental: (§1) Super Mini-B peptide was also characterized in terms of its binding (association) affinity for lipids by plasmon resonance using a Biacore 3000 system (Biacore, Uppsala, Sweden). Peptide self-films were chemically-linked using a CM5 sensor chip (BR-1000-14, research grade), and lipid liposomes in running buffer were flowed over the chip to determine the degree of specific lipid association with the peptide film at 37° C. The off and on rates and dissociation constant KD (KD=koff/kon) were calculated by BIAevaluation Software Version 4.1.

[3] = target: dipalmitoyl phosphatidylcholine (DPPC); assay: as above; conditions: DPPC liposomes over peptide film on CM5 chip, 37° C.; read-out: dissociation constant KD (koff/kon)
Experimental: as §1

Surface tension at minimum bubble radius at time 0.5 min ([1]; 0.5 min pulsation) [mN/m]	Surface tension at minimum bubble radius at time 1 min ([1]; 1 min pulsation) [mN/m]	Surface tension at minimum bubble radius at time 2 min ([1]; 2 min pulsation) [mN/m]	Surface tension at minimum bubble radius at time 5 min ([1]; 5 min pulsation) [mN/m]	Surface tension at minimum bubble radius at time 10 min ([1]; 10 min pulsation) [mN/m]	Surface tension at minimum bubble radius at time 15 min ([1]; 15 min pulsation) [mN/m]	Surface tension at minimum bubble radius at time […] ([1]; […] pulsation) [mN/m]	Kd [2] [nM]	Kd [3] [nM]	Compound
27 ± 2	21 ± 2	14 ± 2	6 ± 1	2 ± 1	<1	32 ± 2	–	–	CCCCCCCCCCCCCCCCOCC(COP(=O)(O)CCC[N+](C)(C)C)OCCCCCCCCCCCCCCCC (racemic) [DEPN-8, [(±)-trimethyl(3-phosphonopropyl)ammonium, mono(2,3-bis(hexadecyloxy)propyl ester]]
–	–	–	–	–	–	–	63	769	FPIPLPYCWLCRALIKRIQAMIPKGGRMLPQLVCRLVLRCS [Super Mini-B]
